Tests used:
[1] = target: human BCL6 BTB domain (Trx-6xHis-BCL6) (Homo sapiens (Human), UniProt P41182); assay: HTRF in vitro assay (BCL6 BTB domain / BCOR-AF633 peptide); format: binding; conditions: further generated data (Table 1b), 1 nM Trx-6xHis-BCL6, 0.5 nM anti-6xHis-Terbium cryptate; for IC50: read-out: HTRF pIC50 (converted)
Description: The % inhibition at each concentration was calculated by normalising FRET ratio to the appropriate high (DMSO with all reagents) and low (DMSO without BCL6) controls.

[2] = target: BCL6-NCOR2(SMRT) corepressor protein-protein interaction (Homo sapiens (Human), UniProt P41182); assay: NanoBRET cell assay in transfected HEK293T cells; format: cell-based; conditions: further generated data (Table 2b); HEK293T cells, 6 hr; read-out: NanoBRET cell pIC50 (converted)
Excerpt: A cellular nano-Bioluminescence Resonance Energy Transfer (nanoBRET) assay (Promega NanoBRET Nano-Glo Detection System, catalogue number N1662) was used to detect inhibition of the BCL6-NCOR2(SMRT) corepressor protein-protein interaction. DNA encoding full length BCL6 and NCOR2 were inserted into pFC32K.NanoLuc and pFC14K.HaloTag vectors (Promega) to produce C-terminal tagged fusion proteins BCL6-nanoLuc and NCOR2-HaloTag, respectively. […] Frozen transfected HEK293T cells were thawed, centrifuged and freezing medium was replaced by phenol red-free OptiMEM+4% FBS (Life Technology). […] Cells were incubated for 6 hr at 37° C./5% CO2 then NanoBRET furimazine substrate (Promega) was added to give a final concentration of 10 μM. After a short centrifugation the plates were read on an Envision (Perkin Elmer) plate reader equipped with a LUM/D600 Dual mirror, Lum 450/40 nm bandpass and D605 nm longpass filters, with a 0.2 sec reading to determine the BRET ratio. The % inhibition at each test concentration was calculated by normalising the BRET ratio to the appropriate high and low controls.

SMILES: COc1ncc(Cl)c(Nc2ccc3c(c2)c(N[C@H](C)C2CC2)cc(=O)n3C)n1 [Example 11e]
- HTRF pIC50 [1]: 6.20
- IC50 [2]: 3470 nM

SMILES: CC(Nc1cc(=O)n(CC2CC2)c2ccc(Nc3ccnc(Cl)c3C#N)cc12)c1ncccn1 (stereo not drawn) [Example 11h, 2-chloro-4-((1-(cyclopropylmethyl)-2-oxo-4-((1-(pyrimidin-2-yl)ethyl)amino)-1,2-dihydroquinolin-6-yl)amino)nicotinonitrile]
- HTRF pIC50 [1]: 6.65
- IC50 [2]: 2820 nM

SMILES: CC(Nc1cc(=O)n(CC2CCC2)c2ccc(Nc3ccnc(Cl)c3C#N)cc12)c1ncccn1 (stereo not drawn) [Example 11i, 2-chloro-4((1-(cyclobutylmethyl)-2-oxo-4-((1-(pyrimidin-2-yl)ethyl)amino)-1,2-dihydroquinolin-6-yl)amino)nicotinonitrile]
- HTRF pIC50 [1]: 6.64
- IC50 [2]: 2090 nM

SMILES: CC(Nc1cc(=O)n(CCO)c2ccc(Nc3ccnc(Cl)c3C#N)cc12)c1ncccn1 (stereo not drawn) [Example 11j, 2-chloro-4-((1-(2-hydroxyethyl)-2-oxo-4-((1-(pyrimidin-2-yl)ethyl)amino)-1,2-dihydroquinolin-6-yl)amino)nicotinonitrile]
- HTRF pIC50 [1]: 6.83
- IC50 [2]: 11000 nM

SMILES: CC(Nc1nc(=O)n(C)c2ccc(Nc3nc(N4CCC(F)(F)CC4)ncc3Cl)cc12)c1ncccn1 (stereo not drawn) [Example 12a, 6-((5-Chloro-2-(4,4-difluoropiperidin-1-yl)pyrimidin-4-yl)amino)-1-methyl-4-((1-(pyrimidin-2-yl)ethyl)amino)quinazolin-2(1H)-one]
- IC50 [1]: 191 nM
- IC50 [2]: 2340 nM

SMILES: C[C@@H](Nc1cc(=O)n(C)c2ccc(Nc3nc(N4CCC(C(=O)N(C)C)CC4)ncc3Cl)cc12)C1CC1 [Example 12b, (R)-1-(5-chloro-4-((4-((1-cyclopropylethyl)amino)-1-methyl-2-oxo-1,2-dihydroquinolin-6-yl)amino)pyrimidin-2-y1)-N,N-dimethylpiperidine-4-carboxamide]
- IC50 [1]: 302 nM
- IC50 [2]: 1290 nM

SMILES: COc1cc(Nc2nc(N3CCC(C(=O)N(C)C)CC3)ncc2Cl)cc2c(NC(C)(C)c3ncccn3)cc(=O)n(C)c12 [Example 12c]
- IC50 [1]: 525 nM
- IC50 [2]: 3310 nM

SMILES: CC(Nc1nc(=O)n(C)c2ccc(Nc3nc(N4CCC(C(=O)N(C)C)CC4)ncc3Cl)cc12)c1ncccn1 (stereo not drawn) [Example 12d, 1-(5-chloro-4-((1-methyl-2-oxo-4((1-(pyrimidin-2-yl)ethyl)amino)-1,2-dihydroquinazolin-6-yl)amino)pyrimidin-2-yl)-N,N-dimethylpiperidine-4-carboxamide]
- HTRF pIC50 [1]: 6.78
- IC50 [2]: 11200 nM

SMILES: C[C@@H]1CN(c2ncc(Cl)c(Nc3ccc4c(c3)c(NC(C)(C)c3ncccn3)cc(=O)n4C)n2)C[C@H](C)O1 [Example 12f, 6-((5-chloro-2-((2S,6R)-2,6-dimethylmorpholino)pyrimidin-4-yl)amino)-1-methyl-4-((2-(pyrimidin-2-yl)propan-2-yl)amino)quinolin-2(1H)-one]
- HTRF pIC50 [1]: 6.57
- IC50 [2]: 2450 nM

SMILES: Cn1c(=O)cc(NC(C)(C)c2ncccn2)c2cc(Nc3cc(Cl)nc(Cl)c3Cl)ccc21 [Example 13, 1-methyl-4-((2-(pyrimidin-2-yl)propan-2-yl)amino)-6-((2,3,6-trichloropyridin-4-yl)amino)quinolin-2(1H)-one]
- HTRF pIC50 [1]: 6.66
- IC50 [2]: 1700 nM

SMILES: Cc1nc(-n2ccc(C(F)(F)F)n2)nc(Nc2ccc3c(c2)c(NC(C)(C)c2ncccn2)cc(=O)n3C)c1Cl [Example 14a, 6-((5-chloro-6-methyl-2-(3-(trifluoromethyl)-1H-pyrazol-1-yl)pyrimidin-4-yl)amino)-1-methyl-4-((2-(pyrimidin-2-yl)propan-2-yl)amino)quinolin-2(1H)-one]
- HTRF pIC50 [1]: 6.66
- IC50 [2]: 3890 nM

SMILES: Cc1cc(C)n(-c2ncc(Cl)c(Nc3ccc4c(c3)c(NC(C)c3ncn(C)n3)cc(=O)n4C)n2)n1 (stereo not drawn) [Example 14b, 6-((5-chloro-2-(3,5-dimethyl-1H-pyrazol-1-yl)pyrimidin-4-yl)amino)-1-methyl-4-((1-(1-methyl-1H-1,2,4-triazol-3-yl)ethyl)amino)quinolin-2(1H)-one]
- HTRF pIC50 [1]: 6.64
- IC50 [2]: 8320 nM

SMILES: Cn1c(=O)cc(NC(C)(C)c2ncccn2)c2cc(Nc3nc(-n4ccc(C(F)(F)F)n4)ncc3Cl)ccc21 [Example 14d, 6-((5-chloro-2-(3-(trifluoromethyl)-1H-pyrazol-1-yl)pyrimidin-4-yl)amino)-1-methyl-4((2-(pyrimidin-2-yl)propan-2-yl)amino)quinolin-2(1H)-one]
- HTRF pIC50 [1]: 6.44
- IC50 [2]: 2040 nM

SMILES: COCC(C)(C)Nc1cc(=O)n(C)c2ccc(Nc3nc(-n4nc(C)cc4C)ncc3Cl)cc12 [Example 14e, 6-((5-chloro-2-(3,5-dimethyl-1H-pyrazol-1-yl)pyrimidin-4-yl)amino)-4-((1-methoxy-2-methylpropan-2-yl)amino)-1-methylquinolin-2(1H)-one]
- HTRF pIC50 [1]: 6.54
- IC50 [2]: 10000 nM

SMILES: COC[C@@H]1CCCN1C(=O)c1cc(Nc2ccc3c(c2)c(N[C@H](C)C2CC2)cc(=O)n3C)c(Cl)cn1 [Example 15a, 6-((5-Chloro-2-((S)-2-(methoxymethyl)pyrrolidine-1-carbonyl)pyridin-4-yl)amino)-4-(((R)-1-cyclopropylethyl)amino)-1-methylquinolin-2(1H)-one]
- HTRF pIC50 [1]: 6.59
- IC50 [2]: 2000 nM

SMILES: COCCC1CCCN1C(=O)c1cc(Nc2ccc3c(c2)c(N[C@H](C)C2CC2)cc(=O)n3C)c(Cl)cn1 (stereo partly drawn) [Example 15b]
- HTRF pIC50 [1]: 6.46
- IC50 [2]: 2190 nM

SMILES: C[C@@H](Nc1cc(=O)n(C)c2ccc(Nc3cc(C(=O)N4CCC4)ncc3Cl)cc12)C1CC1 [Example 15d, (R)-6-((2-(azetidine-1-carbonyl)-5-chloropyridin-4-yl)amino)-4-((1-cyclopropylethyl)amino)-1-methylquinolin-2(1H)-one]
- HTRF pIC50 [1]: 6.42
- IC50 [2]: 1780 nM

SMILES: CC(Nc1cc(=O)n(C)c2ccc(Nc3cc(N4C[C@@H](C)O[C@@H](C)C4)ncc3Cl)cc12)c1ncccn1 (stereo partly drawn) [Example 15e, 6-((5-chloro-2-((2S,6R)-2,6-dimethylmorpholino)pyridin-4-yl)amino)-1-methyl-4-((1-(pyrimidin-2-yl)ethyl)amino)quinolin-2(1H)-one]
- HTRF pIC50 [1]: 6.28
- IC50 [2]: 4270 nM

SMILES: C[C@@H](Nc1cc(=O)n(C)c2ccc(Nc3cc(-n4cc(CCO)cn4)ncc3Cl)cc12)C1CC1 [Example 15f, (R)-6-((5-chloro-2-(4-(2-hydroxyethyl)-1H-pyrazol-1-yl)pyridin-4-yl)amino)-4-((1-cyclopropylethyl)amino)-1-methylquinolin-2(1H)-one]
- HTRF pIC50 [1]: 6.58
- IC50 [2]: 2290 nM

SMILES: CC(Nc1cc(=O)n(C)c2ccc(Nc3cc(N4CCC(C(=O)N(C)C)CC4)ncc3Cl)cc12)c1ncccn1 (stereo not drawn) [Example 15g, 1-(5-chloro-4-((1-methyl-2-oxo-4-((1-(pyrimidin-2-yl)ethyl)amino)-1,2-dihydroquinolin-6-yl)amino)pyridin-2-y1)-N,N-dimethylpiperidine-4-carboxamide]
- HTRF pIC50 [1]: 6.47
- IC50 [2]: 7240 nM

SMILES: CC(Nc1cc(=O)n(C)c2ccc(Nc3cc(N4CCC(F)(F)CC4)ncc3Cl)cc12)c1ncccn1 (stereo not drawn) [Example 15h, 6-((5-chloro-2-(4,4-difluoropiperidin-1-yl)pyridin-4-yl)amino)-1-methyl-4-((1-(pyrimidin-2-yl)ethyl)amino)quinolin-2(1H)-one]
- HTRF pIC50 [1]: 6.21
- IC50 [2]: 6920 nM

— patent US11161839B2, “2-quinolone derived inhibitors of BCL6” (Cancer Research Technology Limited, priority 2017, dated 2021)
